In patent US20180369238A1, “DOPAMINE AGONISTS IN TREATING ALCOHOL USE DISORDERS ASSOCIATED WITH DOPAMINE RECEPTOR ACTIVITY” (MUSC Foundation for Research Development, priority 2017, published 2018):

Experiments:
[1] = system: non-treatment-seeking AUD individuals; test: fMRI alcohol cue-reactivity task (alcohol cue-elicited ventral striatal activation); format: in vivo, human; parameters: VS Activation: effect size of interaction medication x genotype permutation: scale not given here; settings: for Alcohol cue-elicited VS activation (ALC vs. BEV percent signal change): APZ relative to placebo, day 7; for VS Activation: effect size of interaction medication x genotype permutation: n = 81
Source text: (§1) The study was an eight-day sub-acute dosing human laboratory investigation (ClinicalTrials.gov identifier: NCT01292057). After randomization to study medication, subjects underwent an fMRI alcohol cue-reactivity task on day 7 of medication ingestion and a bar-lab paradigm on day 8. To maximize cue-reactivity and motivation to drink, they were instructed to abstain from alcohol on the evenings of days 6 and 7.
(§2) Randomization and medication. […] Subjects and investigators were blind to both genotype and medication assignment. Thus, subjects were stratified by their baseline Barratt Impulsiveness Scale (BIS-11) score (Patton et al., 1995) into groups with BIS-11 scores greater vs. less than the median score of 68 and randomization was conducted separately within each stratum. Urn variables balanced across medication groups within each stratum were sex and smoking status.
Neuroimaging. On day 7, subjects were breathalyzed, assessed for alcohol withdrawal, and re-administered the OCDS. As noted above, one subject with a BAC>0 and two subjects with Clinical Institute Withdrawal Assessment for Alcohol-Revised scores >4 were excluded from scanning. After acquisition of a high-resolution anatomical image, subjects were given a sip (10 ml) of their preferred 80-proof liquor mixed with fruit juice and administered a 12-m-long task during which they passively viewed pseudo-randomly interspersed blocks of alcoholic beverage images (ALC; equally distributed between beer, wine, and liquor), nonalcoholic beverage images (BEV), blurred versions of these images that served as visual controls, and a fixation cross. Each 24-s-long block comprised only one image type and was followed by a 6-s period during which subjects were instructed to rate their urge for alcohol. Images were selected from a normative set, supplemented with images from advertisements, and matched for intensity, color, and complexity. This task consistently elicits robust cue-elicited VS activation among non-treatment-seeking AUD individuals.
Functional images were acquired with a gradient echo, echo-planar imaging sequence implemented on a 3T TIM Trio scanner (Siemens, Erlangen, Germany). Acquisition parameters were: repetition/echo times=2200/35 ms; 328 volumes; flip angle=90°; field of view=192 mm; matrix=64×64; voxel size=3.0×3.0 mm; 36 contiguous 3.0-mm-thick transverse slices. Using FEAT (fMRI Expert Analysis Tool) v. 6.00, part of FSL (FMRIB Software Library, University of Oxford, United Kingdom), functional images were realigned to the middle volume, spatially smoothed (8-mm full width at half maximum kernel), resampled to 2-mm isotropic voxels, and registered, first to the subject's high-resolution anatomical image and subsequently to the Montreal Neurological Institute (MNI; Montréal, Canada) 152-subject-average template. Based on previous data indicating an interaction between DAT1/SLC6A3 genotype and naltrexone on alcohol cue-elicited VS activation, the right VS was defined a priori as a 6-mm-radius sphere centered at the point [12 15 −6] in MNI space. For each subject, this sphere was reverse-registered from the MNI-152 image to the subject's anatomical image, and the average percentage change of the blood-oxygen-level-dependent signal between ALC and BEV blocks (i.e., ALC vs. BEV percent signal change) was extracted.
Statistical analysis. The general linear model (GLM; SPSS 23, IBM, Armonk, N.Y., United States of America) was used to test the interaction between medication and DAT1/SLC6A3 genotype on the primary outcomes (VS ALC vs. BEV activation and the number of drinks consumed in the bar lab). A model that included between-subjects factors for medication, DAT1/SLC6A3 genotype, and their interaction was tested for each outcome. Analyses first compared 9R carriers to 10R homozygotes, and subsequently examined the additive effect of the 9R allele. […] Significant interactions were followed up with simple effects contrasts. […]

[2] = cited from earlier work
[3] = system: non-treatment-seeking AUD individuals; test: Adverse effects, physical symptom checklist; format: in vivo, human; settings: for Number of subjects with insomnia severity Mild / Number of subjects with insomnia severity Moderate / Number of subjects with insomnia severity None / Number of subjects with insomnia severity Severe: APZ group
Source text: Adverse effects. A physical symptom checklist was used to assess the presence and severity (self-rated as none, mild, moderate, or severe) of 21 possible adverse effects at baseline and on day 8 immediately before the bar-lab paradigm.
For the secondary outcome (adverse effect severity), the GLM was first used to evaluate the main effect of medication on the presence/absence of each effect. […] To account for the influence of these effects on the pharmacogenetic interactions evaluated above, the presence/absence of each was evaluated as a covariate in all models.

[4] = system: non-treatment-seeking AUD individuals; test: Bar-lab paradigm (alcohol self-administration); format: in vivo, human; settings: for Bar Lab Drinks: effect size of interaction medication x genotype permutation: n = 94
Source text: as §1, §2
Bar-lab paradigm. […] Thirty minutes later, they were provided a standard caloric lunch, adjusted for gender and weight. At 2:00 PM, subjects were administered a priming drink of their preferred 80-proof liquor in a 1:3 ratio with juice, adjusted for gender, age, and weight to produce a targeted BAC of 30 mg %, and instructed to consume it within five minutes. Forty minutes later, subjects were presented a tray of four drinks, each with a targeted BAC of 15 mg %, and told they could consume as many as they desired over the next hour. After an hour, this tray was removed and another tray of four drinks was made available for consumption over a second hour. To create a decisional balance between drinking and abstaining, subjects were given a “bar credit” of $16 with which to “purchase” drinks, at the cost of $2/drink. After the procedure, subjects were given dinner and remained until 10:00 PM. A BAC measurement below 20 mg % was required before departure, and a friend or taxi drove subjects home.
Statistical analysis. The general linear model (GLM; SPSS 23, IBM, Armonk, N.Y., United States of America) was used to test the interaction between medication and DAT1/SLC6A3 genotype on the primary outcomes (VS ALC vs. BEV activation and the number of drinks consumed in the bar lab). A model that included between-subjects factors for medication, DAT1/SLC6A3 genotype, and their interaction was tested for each outcome. Analyses first compared 9R carriers to 10R homozygotes, and subsequently examined the additive effect of the 9R allele. […] Significant interactions were followed up with simple effects contrasts. VS activation was also analyzed for correlation (Pearson's r) with day 7 OCDS scores and bar-lab drinking.
The GLM was also used to test the interaction between medication and a DA-related genetic composite on the primary outcomes. The DAT1/SLC6A3 9R, COMT met, DRD2 T, and DRD4 long alleles were categorized as higher-DA alleles, and the total number of alleles each subject carried was calculated (Table 2). Few subjects carried more than four higher-DA alleles (four subjects had five alleles and one had seven), so these subjects were combined with those who carried four, yielding five groups of subjects with zero (n=7), one (n=15), two (n=31), three (n=22), or four or more (n=18) alleles. A model that included between-subjects factors for medication, the additive effect of the number of higher-DA alleles, and their interaction was tested for each outcome.

AUD = settings: multisite AUD clinical trial; cited from earlier work
healthy adults = settings: relative to placebo; healthy adults who carried more higher-DA alleles; cited from earlier work
[5] = 9R carriers vs. 10R homozygotes, APZ vs. placebo
[6] = DAT1 (additive effect of 9R alleles), APZ reduced more with more alleles
[7] = DAT1 (additive effect of 9R alleles), APZ reduced more with more alleles, listed as aripiprazole
[8] = DAT1 + COMT + DRD2 + DRD4 (higher-DA alleles composite)

Structure (SMILES): O=C1CCc2ccc(OCCCCN3CCN(c4cccc(Cl)c4Cl)CC3)cc2N1 [APZ, aripiprazole]
- Effect size (partial η2) of interaction medication x DAT1/SLC6A3 genotype on VS activation [1, 5]: 0.061
- Alcohol cue-elicited VS activation (ALC vs. BEV percent signal change) ([1]; DAT1/SLC6A3 9R carriers): reduced VS activation
- Alcohol cue-elicited VS activation (ALC vs. BEV percent signal change) ([1]; DAT1/SLC6A3 10R homozygotes): increased it
- VS Activation: effect size of interaction medication x genotype permutation [1, 6]: 0.067
- VS Activation: effect size of interaction medication x genotype permutation [1, 7]: 0.063
- VS Activation: effect size of interaction medication x genotype permutation [1, 8]: 0.051
- VS Activation: effect size of interaction medication x genotype permutation ([1]; DAT1 + COMT + DRD2): 0.026
- VS Activation: effect size of interaction medication x genotype permutation ([1]; DAT1 + DRD2 + DRD4): 0.084
- VS Activation: effect size of interaction medication x genotype permutation ([1]; DAT1 + DRD2): 0.068
- VS Activation: effect size of interaction medication x genotype permutation ([1]; DAT1 + DRD4): 0.077
- Euphoric effects of alcohol drinking ([2]; natural environment or bar-lab setting): reduce
- Alcohol cue-elicited VS activation ([2]; reported earlier): reduce
- Number of subjects with insomnia severity Mild ([3]; 9R carriers): 11
- Number of subjects with insomnia severity Moderate ([3]; 9R carriers): 6
- Number of subjects with insomnia severity None ([3]; 9R carriers): 11
- Number of subjects with insomnia severity Severe ([3]; 9R carriers): 0
- Number of subjects with insomnia severity Mild ([3]; 10R homozygotes): 8
- Number of subjects with insomnia severity Moderate ([3]; 10R homozygotes): 4
- Number of subjects with insomnia severity None ([3]; 10R homozygotes): 2
- Number of subjects with insomnia severity Severe ([3]; 10R homozygotes): 4
- Frequency of insomnia, daytime sleepiness, irritability, trouble concentrating, nausea/vomiting, dizziness, fatigue, blurry vision, difficulty reaching orgasm ([3]; APZ group vs. placebo, p<0.05, day 8): significantly more frequent
- Insomnia severity ([3]; APZ relative to placebo, DAT1/SLC6A3 9R carriers): did not
- Insomnia severity ([3]; APZ relative to placebo, DAT1/SLC6A3 10R homozygotes): more severe insomnia
- Insomnia severity ([3]; among subjects who received APZ, with a greater number of higher-DA alleles): less severe
- Effect size (partial η2) of interaction medication x DAT1/SLC6A3 genotype on bar-lab drinking [4, 5]: 0.064
- Bar-lab drinking (number of drinks consumed) ([4]; APZ relative to placebo, DAT1/SLC6A3 9R carriers, day 8): reduced drinking
- Effect size (partial η2) of main effect of medication on bar-lab drinking ([4]; APZ vs. placebo, all subjects): 0.049
- Bar Lab Drinks: effect size of interaction medication x genotype permutation [4, 6]: 0.068
- Bar Lab Drinks: effect size of interaction medication x genotype permutation [4, 7]: 0.050
- Bar Lab Drinks: effect size of interaction medication x genotype permutation [4, 8]: 0.069
- Bar Lab Drinks: effect size of interaction medication x genotype permutation ([4]; DAT1 + COMT + DRD2): 0.100
- Bar Lab Drinks: effect size of interaction medication x genotype permutation ([4]; DAT1 + COMT + DRD4): 0.071
- Bar Lab Drinks: effect size of interaction medication x genotype permutation ([4]; DAT1 + COMT): 0.079
- Bar Lab Drinks: effect size of interaction medication x genotype permutation ([4]; DAT1 + DRD2 + DRD4): 0.072
- Bar Lab Drinks: effect size of interaction medication x genotype permutation ([4]; DAT1 + DRD2): 0.081
- Bar Lab Drinks: effect size of interaction medication x genotype permutation ([4]; DAT1 + DRD4): 0.045
- Effect size (partial η2) of simple effect of medication on bar-lab drinking ([4]; among DAT1/SLC6A3 9R carriers, APZ vs. placebo): 0.12
- Effect size (partial η2) of simple effect of medication on bar-lab drinking ([4]; among subjects with four or more higher-DA alleles, APZ vs. placebo): 0.15
- Alcohol consumption biomarker (AUD): significantly improve
- Drinks per drinking day (AUD): significantly improve
- Primary drinking outcome (percent days abstinent) (AUD): did not significantly change

Structure (SMILES): CCCN(CCC)CCc1cccc2c1CC(=O)N2 [ropinirole]
- Impulsive decisions (healthy adults): increased impulsive decisions
